Two compounds from patent US10168342B2, “Lipid probes and uses thereof” (THE SCRIPPS RESEARCH INSTITUTE, priority 2015, dated 2019) can be followed below.

Test in all cases: In situ competitive SILAC profiling with A-DA probe in (PMA-stimulated) A549 cells
What all share (conditions): A549 cells, A-DA probe

In assay [1] the target is T1, A-DA lipid probe targets in A549 cells (Homo sapiens, UniProt Q53GQ0).
T1 sequence (Q53GQ0 1-312): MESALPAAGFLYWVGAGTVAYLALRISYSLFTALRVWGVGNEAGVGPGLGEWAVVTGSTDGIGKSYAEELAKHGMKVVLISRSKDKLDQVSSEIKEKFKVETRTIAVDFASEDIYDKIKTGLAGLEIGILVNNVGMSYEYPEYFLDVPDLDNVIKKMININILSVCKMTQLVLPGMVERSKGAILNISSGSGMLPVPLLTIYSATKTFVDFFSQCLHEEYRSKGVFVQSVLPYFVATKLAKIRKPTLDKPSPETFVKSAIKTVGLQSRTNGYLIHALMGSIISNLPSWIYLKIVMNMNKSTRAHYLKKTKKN

The target of assay [2] is A-DA lipid probe targets in A549 cells (Homo sapiens, UniProt P21796).
A-DA lipid probe targets in A549 cells (Homo sapiens, UniProt P21796), sequence (P21796 whole entry): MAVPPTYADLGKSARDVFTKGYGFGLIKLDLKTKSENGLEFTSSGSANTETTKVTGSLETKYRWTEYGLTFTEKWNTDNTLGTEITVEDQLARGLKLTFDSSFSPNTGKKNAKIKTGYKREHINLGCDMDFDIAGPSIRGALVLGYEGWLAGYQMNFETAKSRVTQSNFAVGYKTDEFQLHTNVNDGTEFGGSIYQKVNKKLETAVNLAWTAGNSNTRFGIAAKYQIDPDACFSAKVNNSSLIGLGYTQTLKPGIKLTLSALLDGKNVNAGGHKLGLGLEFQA
Assay [3] concerns the target A-DA lipid probe targets in A549 cells (Homo sapiens, UniProt Q14534).
Assay [4] addresses T2, A-DA lipid probe targets in A549 cells (Homo sapiens, UniProt P07602).
T2 sequence (P07602 60-524): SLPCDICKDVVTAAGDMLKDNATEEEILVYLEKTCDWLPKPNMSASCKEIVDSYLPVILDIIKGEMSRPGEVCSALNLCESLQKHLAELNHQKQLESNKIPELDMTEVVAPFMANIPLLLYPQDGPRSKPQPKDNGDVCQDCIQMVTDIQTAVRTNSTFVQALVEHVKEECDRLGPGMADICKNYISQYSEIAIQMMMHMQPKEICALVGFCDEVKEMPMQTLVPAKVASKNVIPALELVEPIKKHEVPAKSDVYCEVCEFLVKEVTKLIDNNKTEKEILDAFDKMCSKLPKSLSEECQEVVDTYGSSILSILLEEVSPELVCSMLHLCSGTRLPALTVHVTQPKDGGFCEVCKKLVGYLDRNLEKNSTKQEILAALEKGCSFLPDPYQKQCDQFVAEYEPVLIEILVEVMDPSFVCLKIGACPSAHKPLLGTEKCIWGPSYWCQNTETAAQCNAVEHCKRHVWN

Assay [5] has as its target T3, A-DA lipid probe targets in A549 cells (Homo sapiens, UniProt O15173).
T3 sequence (O15173 1-223): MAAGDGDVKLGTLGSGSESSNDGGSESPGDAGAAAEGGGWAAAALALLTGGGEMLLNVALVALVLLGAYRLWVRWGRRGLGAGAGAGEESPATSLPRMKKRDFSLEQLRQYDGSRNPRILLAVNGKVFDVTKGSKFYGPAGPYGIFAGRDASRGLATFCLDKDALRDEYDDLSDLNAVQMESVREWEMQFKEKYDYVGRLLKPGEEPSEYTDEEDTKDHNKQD

For assay [6], the target named is T4, A-DA lipid probe targets in A549 cells (Homo sapiens, UniProt Q15738).
T4 sequence (Q15738 1-373): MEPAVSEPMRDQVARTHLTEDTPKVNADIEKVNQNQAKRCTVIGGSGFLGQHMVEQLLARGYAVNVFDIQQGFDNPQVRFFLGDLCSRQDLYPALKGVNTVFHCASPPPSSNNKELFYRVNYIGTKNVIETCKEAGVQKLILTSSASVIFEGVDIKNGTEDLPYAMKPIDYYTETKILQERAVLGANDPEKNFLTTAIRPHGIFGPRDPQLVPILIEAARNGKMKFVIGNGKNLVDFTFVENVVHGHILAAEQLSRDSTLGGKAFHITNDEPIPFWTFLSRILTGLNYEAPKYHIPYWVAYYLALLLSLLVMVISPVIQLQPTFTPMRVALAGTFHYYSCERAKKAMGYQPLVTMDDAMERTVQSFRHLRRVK

Assay [7] has as its target T5, A-DA lipid probe targets in A549 cells (Homo sapiens, UniProt Q8IZV5).
T5 sequence (Q8IZV5 1-341): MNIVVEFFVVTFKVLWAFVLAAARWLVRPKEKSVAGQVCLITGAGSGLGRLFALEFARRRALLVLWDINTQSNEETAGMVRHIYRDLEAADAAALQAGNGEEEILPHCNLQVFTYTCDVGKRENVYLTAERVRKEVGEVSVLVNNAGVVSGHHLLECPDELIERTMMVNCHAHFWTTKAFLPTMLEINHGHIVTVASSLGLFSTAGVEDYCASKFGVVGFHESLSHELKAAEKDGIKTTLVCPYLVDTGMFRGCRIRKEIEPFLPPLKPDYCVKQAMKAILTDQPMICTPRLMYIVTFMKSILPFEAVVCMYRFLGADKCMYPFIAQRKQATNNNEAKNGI

In assay [8] the target is T6, A-DA lipid probe targets in A549 cells (Homo sapiens, UniProt P67812).
T6 sequence (P67812 1-179): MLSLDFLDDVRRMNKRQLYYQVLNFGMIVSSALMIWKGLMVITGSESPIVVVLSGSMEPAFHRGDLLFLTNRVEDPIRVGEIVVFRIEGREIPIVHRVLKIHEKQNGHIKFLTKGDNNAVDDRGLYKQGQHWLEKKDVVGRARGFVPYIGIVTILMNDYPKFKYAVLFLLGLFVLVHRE

A-DA lipid probe targets in A549 cells (Homo sapiens, UniProt Q14534), sequence (Q14534 whole entry): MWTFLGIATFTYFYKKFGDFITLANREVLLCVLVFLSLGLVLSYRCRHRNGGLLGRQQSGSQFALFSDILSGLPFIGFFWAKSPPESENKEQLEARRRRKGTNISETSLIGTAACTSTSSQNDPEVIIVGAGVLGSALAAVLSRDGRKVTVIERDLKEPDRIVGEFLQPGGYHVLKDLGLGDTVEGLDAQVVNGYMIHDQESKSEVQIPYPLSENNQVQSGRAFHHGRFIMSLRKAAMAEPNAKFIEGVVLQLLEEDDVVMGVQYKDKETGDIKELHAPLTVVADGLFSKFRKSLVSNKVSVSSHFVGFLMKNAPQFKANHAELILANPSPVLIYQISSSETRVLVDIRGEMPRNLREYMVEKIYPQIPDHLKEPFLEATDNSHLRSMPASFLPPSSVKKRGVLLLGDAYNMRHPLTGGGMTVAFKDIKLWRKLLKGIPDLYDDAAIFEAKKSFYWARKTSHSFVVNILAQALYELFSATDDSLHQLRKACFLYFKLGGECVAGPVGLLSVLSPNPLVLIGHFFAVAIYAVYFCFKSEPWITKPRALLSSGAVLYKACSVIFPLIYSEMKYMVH

With `C=CCN(C)CCCCCCOc1ccc(C(=O)c2ccc(Br)cc2)c(F)c1` [Ro488071], the “SILAC ratio, HSD17B12 (Q53GQ0)” value stood at 1.4 in assay [1] (competitor 5 μM) and 3.0 in assay [1] (competitor 50 μM). Further, the “SILAC ratio, VDAC1 (P21796)” value in assay [2] (competitor 5 μM) amounted to 1.4; in assay [2] (competitor 50 μM) it was 3.3. Also, the “SILAC ratio, SQLE (Q14534)” value in assay [3] (competitor 5 μM) came to 1.4; in assay [3] (competitor 50 μM) it was 3.3. Besides, the “SILAC ratio, PSAP (P07602)” value in assay [4] (competitor 5 μM) is listed as 2.3; in assay [4] (competitor 50 μM), 3.1. Moreover, the results for the “SILAC ratio, PGRMC2 (Q80UU9)” value in assay [5] (competitor 5 μM) and in assay [5] (competitor 50 μM) were 1.6 and 2.1, respectively. The “SILAC ratio, NSDHL (Q15738)” value in assay [6] (competitor 5 μM) came out at 1.5; in assay [6] (competitor 50 μM), 2.5. Also, the “SILAC ratio, RDH10 (Q8IZV5)” value in assay [7] (competitor 5 μM) turned out to be 1.9; in assay [7] (competitor 50 μM) it was 2.8. Besides, the “SILAC ratio, SEC11A (P67812)” value turned out to be 1.5 in assay [8] (competitor 5 μM) and 3.3 in assay [8] (competitor 50 μM).
Take `O=C(/C=C/c1cccnc1)NCCCCC1CCN(C(=O)c2ccccc2)CC1` [FK-866, reference compound]: the “SILAC ratio, HSD17B12 (Q53GQ0)” value in assay [1] (competitor 25 μM) was determined as 1.4. In addition, the “SILAC ratio, VDAC1 (P21796)” value in assay [2] (competitor 25 μM) was 1.3. Moreover, in assay [3] (competitor 25 μM), the “SILAC ratio, SQLE (Q14534)” value was determined as 1.6. The “SILAC ratio, PSAP (P07602)” value in assay [4] (competitor 25 μM) is given as 1.2. The “SILAC ratio, PGRMC2 (Q80UU9)” value in assay [5] (competitor 25 μM) was found to be 1.2. Also, the “SILAC ratio, NSDHL (Q15738)” value in assay [6] (competitor 25 μM) was 1.4. For the same compound, the “SILAC ratio, RDH10 (Q8IZV5)” value in assay [7] (competitor 25 μM) is listed as 3.1. Also, the “SILAC ratio, SEC11A (P67812)” value in assay [8] (competitor 25 μM) turned out to be 1.2.
